Read-outs that look alike come from different tables or passages of the source.
Assays:
[1] = test system: IRI kidney cortex; assay: MR imaging of kidney ischemia-reperfusion (IRI) model; assay type: in vivo, mouse; settings: for Change in longitudinal relaxation time (ΔT1): 4 h post injection, n = 11
Experimental: Kidney Ischemia-Reperfusion (IRI) Model:
Male C57BL/6 mice (10-12 weeks old; Charles River Laboratories) were anesthetized with ketamine/xylazine (100/10 mg/kg; IP). Animals were then placed prone while maintaining rectal temperature strictly at 37° C. with a feedback-regulated heating pad. The skin incision was performed on the left lower flank while adhering to strict aseptic procedures. After accessing the retroperitoneal space, the left kidney, and the left renal artery-vein was identified. Ischemia was induced by applying a micro serrefine clip onto the renal artery and vein. Successful ischemia was visually confirmed by a gradual uniform darkening of the kidney. The clamp was removed 26 minutes later, and a rapid change verified successful reperfusion in kidney color from a dark maroon to a healthy dark pink. The skin was closed using surgical staples, and animals were returned to their home cages. Analgesia was provided by buprenorphine (0.1 mg/kg, SC, bid for three days starting 1 hour before IRI surgery).
Animals were imaged 14 days after IRI and were euthanized after imaging. The right and left kidneys were removed, cortex and medulla regions of each kidney were separated for further analysis.
For kidney imaging, a series of three-dimensional inversion-recovery FLASH images were acquired at baseline and 4 hours after Mn-16 administration with inversion recovery times of 7, 307, 557, 707, 857, 1507, 3007, 5007, and 7007 msec. (TR/TE/FA=5 see/72 msec, field of view (FOV) […], dimension 128×128, slice thickness 0.7 mm).
For kidney imaging analysis, longitudinal relaxation time (T1) was obtained by fitting inversion recovery data to a T1 relaxation equation (M0×(1−2 exp(−TI/T1))) and change in T1 (ΔT1) was calculated by subtracting T1 measured prior to probe injection (T1pre) from T1 measured after injection (T1post), eq 23.

[2] = test system: liver of bile duct ligated (BDL) rats; assay: MR imaging of liver in bile duct ligated rat liver fibrosis model; assay type: in vivo; settings: for ΔCNR of liver: 30 min post injection
Experimental: Rat Liver Fibrosis Model:
Liver fibrosis was induced in male Sprague Dawley rats (n=7) by ligation of the common bile duct (CD®, Charles River Labs, Wilmington, MA). Control animals (n=4) underwent a sham procedure. The BDL and sham rats were imaged 10 days following ligation with a dose of […] of Gd-9 based on body surface area.
T1-mapping was performed with a flow sensitive alternating inversion recovery (FAIR) sequence: repetition time/echo time=11000/33.8 ms; flip angle, 90°; inversion times: 100, 200, 400, 500, 600, 1000, 1500, 2000 ms; field of view, 60×60 mm^2; matrix size, 140×140; slice thickness, 2 mm; acquisition time, 3 minutes 34 seconds. T1 weighted imaging with 3D FLASH: repetition time/echo time=20/2.3 ms; flip angle, 30°; field of view, 60×60 mm^2; matrix size: 127×127; slice thickness, 0.5 mm; acquisition time, 3 minutes 10 seconds. Following the imaging session, animals were sacrificed (30 min p.i.) and liver tissue was subjected to histopathologic analysis.
Longitudinal relaxation rate (R1) maps were generated from the T1 mapping images using a custom written MATLAB (Mathworks, Natick, MA) program for voxel wise fitting of the inversion recovery signal intensities as a function of the inversion time. A region of interest (ROI) was manually traced encompassing the liver parenchyma while avoiding major blood vessels. ΔR1 was calculated by subtracting the R1Pre from R1Post, eq S3. ΔCNR were analyzed from 3D T1 weighted FLASH images, the same as that in mouse.

[3] = test system: myocardium of SAMP8/SAMR1 mice with TAC; settings: 20 min post injection
Excerpt: Combined Heart and Lung Fibrosis Model:
Left ventricular dysfunction with pulmonary hypertension was induced by left thoracotomy transverse aortic constriction surgery (TAC) in 6-month-old senescence-accelerated-prone/resistant mice (SAMP8/SAMR1), which is a well-established model of pressure overload-induced cardiac hypertrophy that can induce heart and lung fibrosis. The transverse aorta was encircled with 7-0 nylon suture and tied tightly around a pre-sterilized, blunt-end of a 27-gauge needle. After securing the knot, the needle was removed, and aortic flow resumed. Another two groups of SAMP8 and SAMR1 mice received sham surgery as control. 3-weeks post-surgery, mice were anesthetized with isoflurane (1.5%) and imaged at a 4.7 Tesla Bruker MRI scanner.
For combined heart and lung imaging, a series of baseline images (2D T1 weighted FLASH for heart and 3D-UTE for lung) were first acquired. 2D T1 weighted FLASH: repetition time/echo time=18.24/3.54 ms; flip angle, 50°; field of view, 36×36 mm^2; matrix size, 138×138 mm^2; slice thickness, 1 mm; acquisition time, 3 minutes 50 seconds. 3D-UTE: repetition time/echo time=4/0.01225 ms; flip angle, 16°; field of view, 32×32 mm^2; matrix size, 128×128 mm^2; slice thickness, 0.25 mm; acquisition time, 3 minutes 36 seconds. Then a bolus of Gd-9 complex was administered i.v. and imaging performed for a period of 40 min p.i. with the repetition acquisition of 2D T1 weighted FLASH and 3D-UTE sequences. Following the imaging session, animals were sacrificed and heart and lung tissue was subjected to histopathologic analysis.
For heart imaging analysis, FLASH image pre-contrast and immediately post-contrast were used to define regions of interest (ROIs) in the myocardium that excluded blood vessels. The percentage of signal intensity change (% SI) was calculated by comparing the SI measured after probe injection to SI measured prior to probe injection.

| Compound | Mn concentration ([1]; IRI kidney cortex) [nmol/g] | Change in longitudinal relaxation time (ΔT1) ([1]; IRI kidney cortex) [ms] | Mn concentration ([1]; contralateral cortex) [nmol/g] | Change in longitudinal relaxation time (ΔT1) ([1]; contralateral cortex) [ms] | fold higher liver to muscle ΔCNR in BDL rats compared to sham rats ([2]; 30 min) [fold] | fold higher ΔR1 in BDL rats compared to sham rats ([2]; 30 min p.i.) [fold] | ΔCNR of liver ([2]; BDL rats (n = 7)) | change of liver longitudinal relaxation rate ΔR1 ([2]; BDL rats, 30 min p.i.) | ΔCNR of liver ([2]; Sham rats (n = 4)) | ΔR1 ([2]; rat model, in vivo imaging) [s⁻¹] | change of liver longitudinal relaxation rate ΔR1 ([2]; sham rats, 30 min p.i.) | % SI change of myocardium ([3]; SAMP1-Sham) [%] | % SI change of myocardium ([3]; SAMP1-TAC) [%] | % SI change of myocardium ([3]; SAMP8-Sham) [%] | % SI change of myocardium ([3]; SAMP8-TAC) [%] |
| --- | --- | --- | --- | --- | --- | --- | --- | --- | --- | --- | --- | --- | --- | --- | --- |
| NOC(CCC(=O)NCCCN1CCN(CC(=O)[O-])Cc2cccc(n2)CN(CC(=O)[O-])CC1)C(=O)O.[Mn+2] (stereo not drawn) [Mn-16] | 90 | -395 | 60 | -230 |  |  |  |  |  |  |  |  |  |  |  |
| NN1CCN(C(=O)CCC(C(=O)[O-])N2CCN(CC(=O)[O-])CCN(CC(=O)[O-])CCN(C(CCC(=O)N3CCN(N)CC3)C(=O)[O-])CC2)CC1.[Gd+3] (stereo not drawn) [Gd-9, cis-1,4-Gd-(CHyd)2] |  |  |  |  | 4 | 5 | 3.4±1.6 | 0.6±0.2 | 0.6±0.2 | 0.6 | 0.1±0.03 | 7.8 ± 4.7 | 21.5 ± 8.4 | 8.2 ± 5.3 | 22 ± 7.9 |
